Reference: ChEMBL document CHEMBL1153782, “3D QSAR study of the toxicity of trichothecene mycotoxins” (Eur J Med Chem, 2009)

Legend:
[1] = test system: Saccharomyces cerevisiae; experiment: Cytotoxicity against yeast cells relative to Tetraol; assay type: functional, organism-based
[2] = test system: Saccharomyces cerevisiae; experiment: Cytotoxicity against yeast cells assessed as logarithm of ratio of toxicity of test compound to Tetraol; assay type: functional, organism-based

| SMILES | Ratio [1] | Activity [2] |
| --- | --- | --- |
| CC(=O)OC[C@]12CCC(C)=C[C@H]1O[C@@H]1[C@H](OC(C)=O)[C@@H](OC(C)=O)[C@@]2(C)[C@]12CO2 | 2.2 | 2.2 |
| CC(=O)OC[C@]12CCC(C)=C[C@H]1O[C@@H]1[C@H](O)[C@@H](OC(C)=O)[C@@]2(C)[C@]12CO2 | 343 | 343 |
